Experimental data: patent US20260242320A1, “USE OF CANNABIDIOL DERIVATIVE IN PREPARATION OF MEDICAMENT” (priority 2023, published 2026)

Assays:
[1] = Respiratory rate determination; assay type: in vivo, mice; details: CIAC001 20 mg/kg i.p.; THC 10 mg/kg i.p.
Method: Mice were intraperitoneally injected with 20 mg/kg CIAC001 or 10 mg/kg THC once daily. After 1 h, the mice were anesthetized with isoflurane by a small animal anesthesia machine (R500IE, RWD Life Science Co) on day 2 and day 5. The respiratory rate of mice was recorded three times within 20 s. The weights of mice were recorded every day.

[2] = Y-maze test of short-term memory; assay type: in vivo, mice; details: CIAC001 20 mg/kg i.p.; THC 10 mg/kg i.p.
Method: Mice were tested for short-term memory using a Y-maze task. Briefly, mice were placed into the Y-maze for 10 min once daily to habituate the apparatus for two consecutive days. After daily habituation, the mice were then treated with CIAC001 (20 mg/kg) or THC (10 mg/kg). On the 3rd day, mice were pretreated with CIAC001 or THC 45 min before the Y-maze test. Next, the “new arm” was blocked, and mice had 5 min to freely explore two arms (the “start arm” and the “old arm”, FIG. 8F). Mice were then removed from the Y-maze and placed into the cages for 2 min. During the test phase, mice were allowed to freely explore all three arms for 2 min, and the time spent in each arm was recorded and analyzed using the Noldus analyzing software. To eliminate olfactory interference, the Y-maze was wiped off with 70% alcohol after each test.

CCCCCc1cc(O)c2c(c1)OC(C)(C)[C@@H]1CCC(C)=C[C@@H]21 [THC, reference compound]
respiratory rate [1]: Respiratory depression was found | time spent on the new arm (Y maze) [2]: spent significantly less time on the new arm
